Source: patent US20260265274A1, “Cyclic Boronic Esters and Their Uses” (Principia Biopharma Inc., priority 2022, published 2026)

Key:
Assay type in all cases: physicochemical
[1] = Stability in SGF (Simulated Gastric Fluid), ester content by UPLC; conditions: SGF pH 1.2, 10 mg/mL in ACN diluted to 0.5 mg/mL
Protocol: (§1) The diluted solution was then analyzed for ester content by UPLC.
(§2) The same set of experiments were performed for the pinacol and pinanediol esters of Boronic Acid 1 except that additional ACN was added when diluting into SIF in order to maintain the compounds in solution (final ACN concentration of 20%-30% in diluted solutions in SIF).

[2] = Open dish stability study at 40° C./75% RH in open glass vials; conditions: for % Peak Area by UPLC, 2 weeks / % Peak Area by UPLC, Initial: 40° C./75% RH open; for Open dish stability, result in words: 40° C./75% RH, open glass vials
[3] = Stability in SIF (Simulated Intestinal Fluid), ester content by UPLC; conditions: SIF pH 6.8, 10 mg/mL in ACN diluted to 0.5 mg/mL, pinacol and pinanediol esters with 20%-30% final ACN
Protocol: as §1, §2

SMILES	Conversion of ester to Boronic Acid 1 in SGF [1]	% Peak Area by UPLC, 2 weeks [2] [%]	% Peak Area by UPLC, Initial [2] [%]	Open dish stability, result in words [2]	Conversion of ester to Boronic Acid 1 in SIF [3]
C[C@@H]1CN(C(C)(C)C=C(C#N)C(=O)N2CCCC[C@@H](OC(=O)N[C@@H](Cc3ccccc3)B3OC(C)(C)C(C)(C)O3)C2)CCO1 [Pinacol ester of Boronic Acid 1, (R)-1-(2-cyano-4-methyl-4-((R)-2-methylmorpholino)pent-2-enoyl)azepan-3-yl ((R)-2-phenyl-1-(4,4,5,5-tetramethyl-1,3,2-dioxaborolan-2-yl)ethyl)carbamate]	completely converted to Boronic Acid 1 immediately	70.9	95.5	significantly degraded after two weeks	completely converted to Boronic Acid 1 immediately
C[C@@H]1CN(C(C)(C)/C=C(\C#N)C(=O)N2CCCC[C@@H](OC(=O)N[C@@H](Cc3ccccc3)B(O)O)C2)CCO1 [Boronic Acid 1, ((R)-1-(((((R)-1-((E)-2-cyano-4-methyl-4-((R)-2-methylmorpholino)pent-2-enoyl)azepan-3-yl)oxy)carbonyl)amino)-2-phenylethyl)boronic acid]	–	85.9	95.8	significantly degraded after two weeks	–
C[C@@H]1CN(C(C)(C)/C=C(\C#N)C(=O)N2CCCC[C@@H](OC(=O)N[C@@H](Cc3ccccc3)B3O[C@@H]4C[C@@H]5C[C@@H](C5(C)C)[C@]4(C)O3)C2)CCO1 [Pinanediol ester of Boronic Acid 1]	only partially converted to Boronic Acid 1	90.6	93.5	significantly degraded after two weeks	only partially converted to Boronic Acid 1
